These results are taken from US20090233841A1, “ANALGESIC CONJUGATES” (Regents of the University of Minnesota, priority 2005, published 2009).

In data set [1] the test system is male ICR mice. Kind of data set: Mouse radiant heat tail flick assay after acute ICV administration. The data set is classed as in vivo. The settings on record: for ED50 nmol (95% C.L.), antinociceptive potency: mouse tail flick, acute ICV administration, conjugates and coadministration; for effect of naltrindole pretreatment on ED50 / acute analgesic activity: pretreatment with the delta antagonist naltrindole; for ED50 ICV (nmol): tail flick, Table 2. As to the method: Acute drug administration. Drugs were dissolved in sterile saline (0.9% NaCl). Animals were anesthetized with halothane and drugs were administered with a Hamilton syringe mated to a shortened (3 mm) 27-g needle in a volume of 4 μl by ICV injection into the lateral cerebral ventricle (Haley et al., 1957). The injection site was 1.6 mm lateral and 0.6 mm caudal to bregma.
Antinociceptive testing. […] Mice were tested once before injection (control time).

Data set [2] deals with male ICR mice. Kind of data set: Tolerance: tail flick ED50 after 3-day chronic ICV infusion (osmotic minipump). The following applies: for tolerance on chronic ICV administration: 3-day ICV infusion; for Chronic ED50 nmol (95% C.L.): compound chronically administered ICV for 3 days, then challenge doses; for Saline ED50 nmol (95% C.L.): saline chronically administered ICV for 3 days, then challenge doses of compound. The data set is classed as in vivo, mouse. As to the method:
(§1) Chronic administration To investigate tolerance and dependence associated with these conjugates, chronic ICV administration studies were performed. The compound of interest was administered ICV via a cannula using an osmotic minipump for 3 days, as previously described (Gomori et al., 2003; Mashiko et al., 2003). Withdrawal was measured by administering naloxone (1 mg/kg; subcutaneous (sc)) and counting the naloxone-precipitated jumps for 10 minutes. Tolerance was determined by administering challenge doses of the compound after chronic infusion for 3 days, and determining the chronic ED50 value at that time.
(§2) Chronic ICV infusion. Osmotic minipumps (model 1003D, Alzet, Durect Corporation, Cupertino, Calif.) were filled with saline or the drug to be tested. The dose of each drug was twelve times its ED50 (nmol)/hour. The minipumps were connected by a 1.6-1.8 cm length of PE-60 tubing to a 3-mm long cannula (osmotic pump connector cannula, Plastics One, Roanoke, Va.) and primed in sterile saline at 37° C. overnight.
(§3) The next day, mice were anesthetized with Avertin (2,2,2-tribromoethanol (370 mg/kg, IP)/tert amyl alcohol (0.16 mg/kg, IP)) before surgery. The scalp was shaved and an incision was made along the midline of the scalp. Hemostats were used to make a pocket under the skin between the shoulder blades. The skull was scraped clean of periosteum so that the cannula pedestal would properly adhere to the skull. A micro drill (Fine Science Tools Inc., Foster City, Calif.) was used to drill a hole approximately 1.6 mm lateral and 0.6 mm caudal to bregma. The minipump was placed between the shoulder blades, the cannula was inserted in the drilled hole into the lateral ventricle, and the cannula pedestal was affixed to the skull with cyanoacrylate glue. The animals were allowed to recover on a heating pad (Fine Science Tools, Foster City, Calif.) and were returned to their cages in the animal facility for three days.
To test the degree of tolerance developed, the osmotic minipump was removed and the mice were returned to their cages for four hours. The mice were then injected with the test drug into the contralateral lateral cerebral ventricle and antinociception was measured with the tail flick test as described above.

Data set [3] concerns mice. The experiment in a line: Conditioned place preference (CPP). The data set is classed as in vivo, mouse. The settings on record: for conditioned place preference: IV; for conditioned place preference (summary statement): dose not restated. As to the method: Conditioned place preference (CPP) is a technique used to measure the rewarding properties of a drug. Two sides of the CPP apparatus have both visual and tactile differences, so that a mouse can tell the difference between sides. On the first day of testing, the time each mouse spends in either side of the apparatus is measured. For the next three days, the drug is “paired” with one side or the other by injecting the mouse and immediately confining it to that side. On the final day, the amount of time the mouse spends in the drug-paired side is determined and the percent change is calculated. If the percent change is positive, the drug is thought to be rewarding and likely to be abused by humans.
Methods The CPP apparatus used was a plastic box, approximately 12 inches×6 inches×6 inches (1/w/h). One half of the box was transparent with a scored or textured floor and the other half of the box had blue vertical stripes with a smooth floor. The box was divided such that the mice could go from one side to the other through an opening or be confined to one side.
Preconditioning On day 1, each mouse was allowed to explore both sides of the box for 15 minutes to expose them to the novel environment. On day 2, each mouse was placed into the box for 15 minutes and the amount of time the mouse spent in each side of the box was recorded. Mice that spend more than 9 minutes in one side of the box are excluded (two of 32 mice were excluded).
Conditioning On day 3, each mouse was given two sets of IV injections. First, the mice were injected with saline and randomly confined to one side of the box for 30 minutes. The mice were then injected with the drug (or saline, for control mice) and confined to the other side of the box (“drug-paired side”) for 30 minutes. This conditioning paradigm was repeated for three days.
Postconditioning On day 6, the amount of time the mouse spent in each side of the box was recorded. For the results, the amount of time the mouse spent in the drug-paired side during preconditioning was subtracted from the time spent in the drug-paired side during post-conditioning to reach a “score”: Score=Postconditioning time in drug-paired side-Preconditioning time spent in drug-paired side.
FIG. 1 depicts the percent change in time spent in the drug-paired side. The asterisks in the graph indicate significant difference from saline (p<0.05).

For data set [4], the system named is male ICR mice. Kind of data set: Physical dependence: naloxone-precipitated withdrawal jumping after chronic ICV infusion. The data set is classed as in vivo, mouse. The settings on record: for physical dependence on chronic ICV administration: 3-day ICV infusion, naloxone-precipitated jumping; for # of Jumps (SEM), naloxone-precipitated withdrawal: average jumps in 10 minutes after naloxone 1 mg/kg sc, after 3-day ICV infusion. As to the method: as §1, §2, §3
Testing for dependence and tolerance. The development of physical dependence was assessed by quantifying withdrawal jumping observed during precipitated withdrawal (Way et al., 1969) on the fourth day after surgery. Mice were injected with naloxone (1 mg/kg, sc) and placed into Plexiglas cylinders for 10 minutes. During those 10 minutes, vertical jumps were counted as withdrawal signs.

In data set [5] the test system is male ICR mice. Kind of data set: Mouse tail flick assay after IV administration. The following applies: for decrease in potency when administering IV versus ICV: tail flick ED50 IV versus ICV. On the procedure: Antinociceptive testing. Antinociception was evaluated by the radiant heat tail flick assay (D'Amour et al., 1941). Briefly, a beam of light was focused on the mouse tail and the time until the tail flicked was measured. Each animal served as its own control and was used only once. Mice were tested once before injection (control time). After injection, the mice were tested at the time of peak drug response (drug time), as determined by pilot time course studies. The light intensity was adjusted so that control times were between 1.5 and 2.5 s. A 10 second cutoff drug time was set to minimize the risk of tissue damage. Percent maximum possible effect (% MPE) was calculated as follows (Dewey et al., 1970): […]
Graded dose response curves of at least 4 doses with at least 8 mice per dose were generated from the % MPE data.
Methods Drugs were administered IV via the tail vein in a volume of 100 μl to male ICR mice. Fifteen minutes later, antinociception was measured by the tail flick assay and charcoal meal (300 μl, oral) was administered by gavage. Thirty minutes after the charcoal meal., the mice were sacrificed by halothane overdose and the distance the charcoal traveled relative to the entire length of the GI tract was compared to the distance traveled in control animals injected with saline. The conjugates tested (MDAN-16, MDAN-19, MDAN-20, and MDAN-21) had linker lengths of 19, 23, 24, and 25 Å.

Data set [6] concerns male ICR mice. Kind of data set: GI transit inhibition (charcoal meal) after IV administration. It is filed as in vivo, mouse.

Structures are written as SMILES. “Also recorded” adds a separate entry of the source.

For `CN1CCC23c4c5ccc(O)c4OC2C(NC(=O)COCC(=O)NCCNC(=O)COCC(=O)Nc2cccc4c6c([nH]c24)C2Oc4c(O)ccc7c4C24CCN(CC2CC2)C(C7)C4(O)C6)CCC3(O)C1C5` (stereo not shown) [Compound 3], in data set [1], the “ED50 nmol (95% C.L.), antinociceptive potency” value is listed as 1.79 (1.54-2.04) nmol and the “effect of naltrindole pretreatment on ED50 / acute analgesic activity” value was “This effect was not observed”. Further, the “tolerance on chronic ICV administration” value in data set [2] (listed as MDAN-16) was “produced both tolerance and dependence; also recorded: both tolerance and physical dependence developed”. Also, in data set [2], the “Chronic ED50 nmol (95% C.L.)” value is on record as 4.72 (3.47-5.91) nmol and the “Saline ED50 nmol (95% C.L.)” value is on record as 1.62 (1.35-1.89) nmol. Moreover, the “fold increase in ED50 value after chronic ICV infusion” value in data set [2] (three-day ICV infusion) came out at 2.6 fold. For the same compound, in data set [3] (4× the ED90 analgesic dose), the “conditioned place preference” value is on record as “suggested a place preference”. In data set [4] (listed as MDAN-16), the “physical dependence on chronic ICV administration” value (“physical dependence” for short) is “produced both tolerance and dependence; also recorded: both tolerance and physical dependence developed”; the “# of Jumps (SEM), naloxone-precipitated withdrawal” value (“# of Jumps (SEM)” below) turned out to be 30. Moreover, in data set [4], the “# of Jumps (SEM)” value is 30 (23).
Turning to `CN1CCC23c4c5ccc(O)c4OC2C(NC(=O)COCC(=O)NCCCCCCCNC(=O)COCC(=O)Nc2cccc4c6c([nH]c24)C2Oc4c(O)ccc7c4C24CCN(CC2CC2)C(C7)C4(O)C6)CCC3(O)C1C5` (stereo not shown) [Compound 8], the “decrease in potency when administering IV versus ICV” value in data set [5] is ~40 ×. In data set [5] (tail flick, IV), the “ED50 IV (nmol)” value is 3.3 (3.0-3.6) nmol and the “potency relative to morphine when given IV” value is listed as 50 fold. In data set [1], the “ED50 nmol (95% C.L.), antinociceptive potency” value is 0.08 (0.06-0.10) nmol and the “ED50 ICV (nmol)” value is 0.08 (0.06-0.10) nmol. Further, the “tolerance on chronic ICV administration” value in data set [2] (listed as MDAN-21) is “no tolerance or dependence was observed; also recorded: produced no tolerance or physical dependence”. For the same compound, in data set [2], the “Chronic ED50 nmol (95% C.L.)” value is reported as 0.10 (0.09-0.11) nmol and the “Saline ED50 nmol (95% C.L.)” value is reported as 0.10 (0.09-0.11) nmol. Further, the “conditioned place preference” value in data set [3] (4× the ED90 analgesic dose) is listed as “did not display a place preference”. Moreover, the “conditioned place preference (summary statement)” value in data set [3] is “does not produce conditioned place preference”. The “physical dependence” value in data set [4] (listed as MDAN-21) is listed as “no tolerance or dependence was observed; also recorded: produced no tolerance or physical dependence”. The “# of Jumps (SEM)” value in data set [4] is recorded as 3.5 (1.7).
Regarding `CN1CCC23c4c5ccc(O)c4OC2C(NC(=O)COCC(=O)NCCCCCNC(=O)COCC(=O)Nc2cccc4c6c([nH]c24)C2Oc4c(O)ccc7c4C24CCN(CC2CC2)C(C7)C4(O)C6)CCC3(O)C1C5` (stereo not shown) [Compound 6], in data set [1], the “ED50 nmol (95% C.L.), antinociceptive potency” value is 0.43 (0.36-0.50) nmol and the “effect of naltrindole pretreatment on ED50 / acute analgesic activity” value was “acute analgesic activity was similar to the control ligand MA-19”. Also, the “tolerance on chronic ICV administration” value in data set [2] (listed as MDAN-19) is listed as “no tolerance or dependence was observed; also recorded: produced no tolerance or physical dependence”. Besides, in data set [2], the “Chronic ED50 nmol (95% C.L.)” value is on record as 0.40 (0.33-0.47) nmol and the “Saline ED50 nmol (95% C.L.)” value is given as 0.42 (0.37-0.47) nmol. In addition, the “conditioned place preference” value in data set [3] (4× the ED90 analgesic dose) was “did not display a place preference”. Moreover, the “physical dependence” value in data set [4] (listed as MDAN-19) is “no tolerance or dependence was observed; also recorded: produced no tolerance or physical dependence”. The “# of Jumps (SEM)” value in data set [4] is reported as 3.6 (1.7).
`CN1CC[C@]23c4c5ccc(O)c4O[C@H]2[C@@H](O)C=C[C@H]3[C@H]1C5` [Morphine, reference compound]: the “efficacy in the TF test” value in data set [5] (IV, tail flick 15 min after drug) is “fully efficacious”. For the same compound, in data set [5], the “decrease in potency when administering IV versus ICV” value was ~40 ×. Moreover, the “ED50 IV (nmol)” value in data set [5] (tail flick, IV) is listed as 168 (146-178) nmol. Further, the “ED50 ICV (nmol)” value in data set [1] is listed as 4.1 (3.7-4.8) nmol. The “efficacy in the GIT inhibition assay” value in data set [6] is on record as “fully efficacious”. Also, the “GIT inhibition ED50” value in data set [6] (charcoal meal 15 min after drug) is 129 (115-142) nmol. Moreover, in data set [2], the “Chronic ED50 nmol (95% C.L.)” value is reported as 26.80 (20.82-32.78) nmol. For the same compound, the “Saline ED50 nmol (95% C.L.)” value in data set [2] is listed as 4.54 (3.51-5.56) nmol. Also, the “conditioned place preference” value in data set [3] (2× the ED90 analgesic dose) was “exhibiting a conditioned place preference”; in data set [3] (4× the ED90 analgesic dose), “demonstrated conditioned place preference”. Moreover, in data set [3], the “conditioned place preference (summary statement)” value was “produced conditioned place preference”. The entries for the “# of Jumps (SEM)” value in data set [4] and in data set [4] (listed as morphine) were 100 (15) and 100±15, respectively.
